biological target: T1, rat NHE-3 (Rattus norvegicus, UniProt P26433); assay: Cell-based assay of NHE-3 activity (Pharmacological Test Example 1); details: OK cells expressing rat NHE-3; 0-30 uM test compound, 5 uM EIPA
T1 construct: expressed in transfected cells; host or cells: Opossum kidney (OK) cells (ATCC), electroporated
Description: Rat NHE-3-mediated Na^+-dependent H^+ antiport was measured using a modification of the pH sensitive dye method originally reported by Tsien (Proc. Natl. Acad. Sci. USA. (1984) 81(23): 7436-7440). Opossum kidney (OK) cells were obtained from the ATCC and propagated per their instructions. The rat NHE-3 gene was introduced into OK cells via electroporation, seeded into 96 well plates and grown overnight. Medium was aspirated from the wells, cells were washed twice with NaCl-HEPES buffer (100 mM NaCl, 50 mM HEPES, 10 mM glucose, 5 mM KCl, 2 mM CaCl2, 1 mM MgCl2, pH 7.4), then incubated for 30 min at room temperature with NH4Cl-HEPES buffer (20 mM NH4Cl, 80 mM NaCl, 50 mM HEPES, 5 mM KCl, 2 mM CaCl2), 1 mM MgCl2, pH 7.4) containing 5 uM BCECF-AM (Invitrogen). Cells were washed twice with Ammonium free, Nat-free HEPES (100 mM choline, 50 mM HEPES, 10 mM glucose, 5 mM KCl, 2 mM CaCl2), 1 mM MgCl2, pH 7.4) and incubated in the same buffer for 10 minutes at room temperature to lower intracellular pH. […] Initial rates were plotted as the average 3-6 replicates, and pIC50 values were estimated using GraphPad Prism.

T1 sequence (P26433 29-831): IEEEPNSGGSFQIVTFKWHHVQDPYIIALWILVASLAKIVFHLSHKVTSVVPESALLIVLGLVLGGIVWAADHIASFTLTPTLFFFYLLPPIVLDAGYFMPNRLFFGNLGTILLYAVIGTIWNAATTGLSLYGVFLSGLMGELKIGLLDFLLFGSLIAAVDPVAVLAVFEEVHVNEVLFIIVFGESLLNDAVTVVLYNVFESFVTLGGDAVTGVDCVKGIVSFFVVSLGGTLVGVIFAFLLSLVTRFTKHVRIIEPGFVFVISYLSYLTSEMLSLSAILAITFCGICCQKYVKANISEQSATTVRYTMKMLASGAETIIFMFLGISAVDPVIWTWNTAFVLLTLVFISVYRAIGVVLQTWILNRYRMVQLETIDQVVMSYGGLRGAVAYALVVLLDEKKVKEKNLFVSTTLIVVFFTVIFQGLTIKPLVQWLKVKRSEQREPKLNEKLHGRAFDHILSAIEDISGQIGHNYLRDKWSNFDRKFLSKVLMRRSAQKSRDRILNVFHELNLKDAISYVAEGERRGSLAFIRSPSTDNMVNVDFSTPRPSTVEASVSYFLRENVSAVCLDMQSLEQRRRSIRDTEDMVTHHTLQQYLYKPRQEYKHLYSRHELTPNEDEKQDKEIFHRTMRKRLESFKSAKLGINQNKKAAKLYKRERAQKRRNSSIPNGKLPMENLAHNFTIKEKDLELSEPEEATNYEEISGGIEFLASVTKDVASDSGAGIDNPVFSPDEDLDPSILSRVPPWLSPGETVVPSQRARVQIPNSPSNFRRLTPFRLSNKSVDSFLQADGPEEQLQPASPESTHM

Row | Structure (SMILES) | rat NHE-3 Average pIC50
1 | N=C(N)Nc1nc(-c2cccc(N3CCN(CCC(=O)O)CC3)c2)c2cc(Cl)ccc2n1 [Example 64, 3-(4-(3-(6-chloro-2-(diaminomethyleneamino)quinazolin-4-yl)phenyl)piperazin-1-yl)propanoic acid] | 5 to 6
2 | N=C(N)Nc1nc(-c2cccc(N3CCN(CCCN)CC3)c2)c2cc(Cl)ccc2n1 [Example 65, 1-(4-(3-(4-(3-aminopropyl)piperazin-1-yl)phenyl)-6-chloroquinazolin-2-yl)guanidine] | 6 to 7
3 | N=C(N)N1CCN(c2ccc(-c3nc(N=C(N)N)nc4ccc(Cl)cc34)cc2)CC1 [Example 66, 4-(4-(6-chloro-2-(diaminomethyleneamino)quinazolin-4-yl)phenyl)piperazine-1-carboximidamide] | 6 to 7
4 | NC(N)=NCCCN1CCN(c2cccc(-c3nc(N=C(N)N)nc4ccc(Cl)cc34)c2)CC1 [Example 67, 2-(4-(3-(4-(3-guanidinopropyl)piperazin-1-yl)phenyl)-6-chloroquinazolin-2-yl)guanidine] | 6 to 7
5 | CN1Cc2c(Cl)cc(Cl)cc2C(c2cccc(S(=O)(=O)NCCOCCOCCOCCNC(=O)NCCOCCOCCOCCNS(=O)(=O)c3cccc(C4CN(C)Cc5c(Cl)cc(Cl)cc54)c3)c2)C1 (stereo not shown) [Example 100, N,N′-(13-oxo-3,6,9,17,20,23-hexaoxa-12,14-diazapentacosane-1,25-diyl)bis(3-(6,8-dichloro-2-methyl-1,2,3,4-tetrahydroisoquinolin-4-yl)benzenesulfonamide)] | 6 to 7
6 | CN1Cc2c(Cl)cc(Cl)cc2C(c2ccc(S(=O)(=O)NCCOCCOCCOCCNC(=O)NCCOCCOCCOCCNS(=O)(=O)c3ccc(C4CN(C)Cc5c(Cl)cc(Cl)cc54)cc3)cc2)C1 (stereo not shown) [Example 103, N,N′-(13-oxo-3,6,9,17,20,23-hexaoxa-12,14-diazapentacosane-1,25-diyl)bis(4-(6,8-dichloro-2-methyl-1,2,3,4-tetrahydroisoquinolin-4-yl)benzenesulfonamide)] | >7
7 | Nc1cccc(C2CN(CCOCCOCCOCCN3Cc4c(Cl)cc(Cl)cc4C(c4cccc(N)c4)C3)Cc3c(Cl)cc(Cl)cc32)c1 (stereo not shown) [Example 171, 3,3′-(2,2′-(2,2′-(2,2′-oxybis(ethane-2,1-diyl)bis(oxy))bis(ethane-2,1-diyl))bis(6,8-dichloro-1,2,3,4-tetrahydroisoquinoline-4,2-diyl))dianiline] | <5.0
8 | CN1Cc2c(Cl)cc(Cl)cc2C(c2ccc(S(=O)(=O)NCCOCCOCCNC(=O)C(=O)NCCOCCOCCNS(=O)(=O)c3ccc(C4CN(C)Cc5c(Cl)cc(Cl)cc54)cc3)cc2)C1 (stereo not shown) [Example 175, N1,N2-bis(2-(2-(2-(4-(6,8-dichloro-2-methyl-1,2,3,4-tetrahydroisoquinolin-4-yl)phenylsulfonamido)ethoxy)ethoxy)ethyl)oxalamide] | <5.0
9 | CN1Cc2c(Cl)cc(Cl)cc2C(c2cccc(S(=O)(=O)NCCOCCOCCNC(=O)COCC(=O)NCCOCCOCCNS(=O)(=O)c3cccc(C4CN(C)Cc5c(Cl)cc(Cl)cc54)c3)c2)C1 (stereo not shown) [Example 195, 2,2′-oxybis(N-(2-(2-(2-(3-(6,8-dichloro-2-methyl-1,2,3,4-tetrahydroisoquinolin-4-yl)phenylsulfonamido)ethoxy)ethoxy)ethyl)acetamide)] | >7
10 | CN1Cc2c(Cl)cc(Cl)cc2C(c2cccc(S(=O)(=O)NCCOCCOCCNC(=O)C(C)(C)C(=O)NCCOCCOCCNS(=O)(=O)c3cccc(C4CN(C)Cc5c(Cl)cc(Cl)cc54)c3)c2)C1 (stereo not shown) [Example 196, N1,N3-bis(2-(2-(2-(3-(6,8-dichloro-2-methyl-1,2,3,4-tetrahydroisoquinolin-4-yl)phenylsulfonamido)ethoxy)ethoxy)ethyl)-2,2-dimethylmalonamide] | 5 to 6
11 | CN1Cc2c(Cl)cc(Cl)cc2C(c2cccc(S(=O)(=O)NCCOCCOCCNCc3ccc(CNCCOCCOCCNS(=O)(=O)c4cccc(C5CN(C)Cc6c(Cl)cc(Cl)cc65)c4)cc3)c2)C1 (stereo not shown) [Example 206, N,N′-(2,2′-(2,2′-(2,2′-(1,4-phenylenebis(methylene))bis(azanediyl)bis(ethane-2,1-diyl))bis(oxy)bis(ethane-2,1-diyl))bis(oxy)bis(ethane-2,1-diyl))bis(3-(6,8-dichloro-2-methyl-1,2,3,4-tetrahydroisoquinolin-4-yl)benzenesulfonamide)] | >7

Continued, values first:

Row | rat NHE-3 Average pIC50 | Structure (SMILES)
12 | 6 to 7 | CN1Cc2c(Cl)cc(Cl)cc2C(c2cccc(S(=O)(=O)NCCOCCOCCOCCNC(=O)CCOCCOCCOCCOCCOCCOCCOCCOCCOCCC(=O)NCCOCCOCCOCCNS(=O)(=O)c3cccc(C4CN(C)Cc5c(Cl)cc(Cl)cc54)c3)c2)C1 (stereo not shown) [Example 97, N1,N31-bis(2-(2-(2-(2-(3-(6,8-dichloro-2-methyl-1,2,3,4-tetrahydroisoquinolin-4-yl)phenylsulfonamido)ethoxy)ethoxy)ethoxy)ethyl)-4,7,10,13,16,19,22,25,28-nonaoxahentriacontane-1,31-diamide]
13 | >7 | CN1Cc2c(Cl)cc(Cl)cc2C(c2ccc(S(=O)(=O)NCCOCCOCCOCCNC(=O)CCOCCOCCOCCOCCOCCOCCOCCOCCOCCC(=O)NCCOCCOCCOCCNS(=O)(=O)c3ccc(C4CN(C)Cc5c(Cl)cc(Cl)cc54)cc3)cc2)C1 (stereo not shown) [Example 98, N1,N31-bis(2-(2-(2-(2-(4-(6,8-dichloro-2-methyl-1,2,3,4-tetrahydroisoquinolin-4-yl)phenylsulfonamido)ethoxy)ethoxy)ethoxy)ethyl)-4,7,10,13,16,19,22,25,28-nonaoxahentriacontane-1,31-diamide]
14 | 6 to 7 | C/C(=C\c1cc(F)c(Oc2ccc(S(=O)(=O)NCCOCCOCCOCCOCCOCCOCCNC(=O)C(O)C(O)C(=O)NCCOCCOCCOCCOCCOCCOCCNS(=O)(=O)c3ccc(Oc4c(F)cc(/C=C(\C)C(=O)N=C(N)N)cc4F)cc3)cc2)c(F)c1)C(=O)N=C(N)N (stereo not shown) [Example 104, N1,N4-bis(20-(4-(4-((E)-3-(diaminomethyleneamino)-2-methyl-3-oxoprop-1-enyl)-2,6-difluorophenoxy)phenylsulfonamido)-3,6,9,12,15,18-hexaoxaicosyl)-2,3-dihydroxysuccinamide]
15 | 6 to 7 | CN1Cc2c(Cl)cc(Cl)cc2C(c2ccc(S(=O)(=O)NCCOCCOCCNC(=O)[C@H](O)[C@@H](O)C(=O)NCCOCCOCCNS(=O)(=O)c3ccc(C4CN(C)Cc5c(Cl)cc(Cl)cc54)cc3)cc2)C1 (stereo partly drawn) [Example 207, (2R,3R)—N1,N4-bis(2-(2-(2-(4-(6,8-dichloro-2-methyl-1,2,3,4-tetrahydroisoquinolin-4-yl)phenylsulfonamido)ethoxy)ethoxy)ethyl)-2,3-dihydroxysuccinamide]

same assay, conditions: OK cells expressing rat NHE-3; 0-30 uM test compound, 5 uM EIPA; read-out: rat NHE-3 Average pIC50 (converted)

Row | Structure (SMILES) | IC50
16 | CN1Cc2c(Cl)cc(Cl)cc2C(c2cccc(S(=O)(=O)NCCOCCOCCOCCn3cc(COCc4cn(CCOCCOCCOCCNS(=O)(=O)c5cccc(C6CN(C)Cc7c(Cl)cc(Cl)cc76)c5)nn4)nn3)c2)C1 (stereo not shown) [Example 81, N,N′-(2,2′-(2,2-(2,2′-(2,2′-(4,4′-oxybis(methylene)bis(1H-1,2,3-triazole-4,1-diyl))bis(ethane-2,1-diyl))bis(oxy)bis(ethane-2,1-diyl))bis(oxy)bis(ethane-2,1-diyl))bis(oxy)bis(ethane-2,1-diyl))bis(3-(6,8-dichloro-2-methyl-1,2,3,4-tetrahydroisoquinolin-4-yl)benzenesulfonamide)] | < 0.1 µM
17 | CN1Cc2c(Cl)cc(Cl)cc2C(c2cccc(S(=O)(=O)NCCOCCOCCOCCNC(=O)Nc3ccc(NC(=O)NCCOCCOCCOCCNS(=O)(=O)c4cccc(C5CN(C)Cc6c(Cl)cc(Cl)cc65)c4)cc3)c2)C1 (stereo not shown) [Example 209, N,N′-(1,1′-(1,4-phenylenebis(azanediyl))bis(1-oxo-5,8,11-trioxa-2-azatridecane-13,1-diyl))bis(3-(6,8-dichloro-2-methyl-1,2,3,4-tetrahydroisoquinolin-4-yl)benzenesulfonamide)] | 1 to 10 µM

The remaining lines, values ahead:

Row | IC50 | Structure (SMILES)
18 | 0.1 to 1 µM | C/C(=C\c1cc(F)c(Oc2ccc(S(=O)(=O)NCCOCCOCCOCCNC(=O)NCCOCCOCCOCCNS(=O)(=O)c3ccc(Oc4c(F)cc(/C=C(\C)C(=O)N=C(N)N)cc4F)cc3)cc2)c(F)c1)C(=O)N=C(N)N [Example 46, N,N′-(13-oxo-3,6,9,17,20,23-hexaoxa-12,14-diazapentacosane-1,25-diyl)bis[(E)-N-(diaminomethylene)-3-(3,5-difluoro-4-(4-sulfamoylphenoxy)phenyl)-2-methylacrylamide]]
19 | 0.1 to 1 µM | C/C(=C\c1cc(F)c(Oc2ccc(S(=O)(=O)NCCOCCOCCOCCNC(=O)CCOCCOCCOCCOCCOCCOCCOCCOCCOCCC(=O)NCCOCCOCCOCCNS(=O)(=O)c3ccc(Oc4c(F)cc(/C=C(\C)C(=O)N=C(N)N)cc4F)cc3)cc2)c(F)c1)C(=O)N=C(N)N [Example 102, N1,N31-bis(2-(2-(2-(2-(4-(4-((E)-3 (diaminomethyleneamino)-2-methyl-3-oxoprop-1-enyl)-2,6-difluorophenoxy)phenylsulfonamido)ethoxy)ethoxy)ethoxy)ethyl)-4,7,10,13,16,19,22,25,28-nonaoxahentriacontane-1,31-diamide]
